Common to all, as to assay type: biochemical
For assay [1], the target named is T1, AbTIR (Acinetobacter baumannii, UniProt A0A009IHW8).
T1 construct: gene J512_3302; core TIR domain, residues 157-292; N-terminal Strep II and C-terminal 6xHis tags (pET30a+), E. coli BL21(DE3); catalytic E208
Briefly: in vitro NADase assay on bead-bound protein, LC-MS. Particulars: […] NAD+, ~[…] C, […] h.

Assay [2] deals with T2, BdTIR (Brachypodium distachyon, UniProt I1GTC2).
T2 construct: gene BRADI_1g24377v3; TIR-only protein; N-terminal Strep II and C-terminal 6xHis tags (pET30a+), E. coli BL21(DE3); catalytic E127
T2 sequence (I1GTC2 1-224): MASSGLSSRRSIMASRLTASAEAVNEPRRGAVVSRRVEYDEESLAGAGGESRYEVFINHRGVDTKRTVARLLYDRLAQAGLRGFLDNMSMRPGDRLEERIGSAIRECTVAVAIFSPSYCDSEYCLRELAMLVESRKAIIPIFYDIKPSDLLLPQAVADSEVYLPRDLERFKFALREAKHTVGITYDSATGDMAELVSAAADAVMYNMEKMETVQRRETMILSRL
Briefly: in vitro NADase assay on bead-bound protein, LC-MS. Particulars: […] NAD+, ~[…] C, […] h.

Assay [3] has as its target T3, ThsA (Bacillus cereus, UniProt J8G6Z1).
T3 construct: SIR2-type NADase with C-terminal SLOG domain; in vitro preparation not described in main text
Briefly: in vitro NAD+ consumption. Particulars: stimulated by NADase products of ThsB-Auto.

Assay [4] deals with T4, HopAM1 (Pseudomonas syringae group genomosp. 3, UniProt Q877R9).
T4 construct: gene hopAM1-1; TIR effector; N-terminal Strep II and C-terminal 6xHis tags (pET30a+), E. coli BL21(DE3)
Briefly: in vitro NADase assay on bead-bound protein, LC-MS. Particulars: […] NAD+, ~[…] C, […] h.

T4 sequence (Q877R9 whole entry): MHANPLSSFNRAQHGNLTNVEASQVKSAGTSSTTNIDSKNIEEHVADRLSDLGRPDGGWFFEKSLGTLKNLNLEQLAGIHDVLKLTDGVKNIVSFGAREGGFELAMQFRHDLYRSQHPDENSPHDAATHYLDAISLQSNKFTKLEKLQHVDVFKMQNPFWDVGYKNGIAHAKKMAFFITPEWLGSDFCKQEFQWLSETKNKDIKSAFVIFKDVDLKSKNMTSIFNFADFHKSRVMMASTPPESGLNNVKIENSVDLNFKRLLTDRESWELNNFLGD
T1 sequence (A0A009IHW8 134-269): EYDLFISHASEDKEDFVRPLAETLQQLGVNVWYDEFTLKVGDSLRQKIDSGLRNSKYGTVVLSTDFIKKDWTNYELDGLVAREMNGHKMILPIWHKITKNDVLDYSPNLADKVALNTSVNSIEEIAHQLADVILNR
T3 sequence (J8G6Z1 whole entry, the tested form may be a part): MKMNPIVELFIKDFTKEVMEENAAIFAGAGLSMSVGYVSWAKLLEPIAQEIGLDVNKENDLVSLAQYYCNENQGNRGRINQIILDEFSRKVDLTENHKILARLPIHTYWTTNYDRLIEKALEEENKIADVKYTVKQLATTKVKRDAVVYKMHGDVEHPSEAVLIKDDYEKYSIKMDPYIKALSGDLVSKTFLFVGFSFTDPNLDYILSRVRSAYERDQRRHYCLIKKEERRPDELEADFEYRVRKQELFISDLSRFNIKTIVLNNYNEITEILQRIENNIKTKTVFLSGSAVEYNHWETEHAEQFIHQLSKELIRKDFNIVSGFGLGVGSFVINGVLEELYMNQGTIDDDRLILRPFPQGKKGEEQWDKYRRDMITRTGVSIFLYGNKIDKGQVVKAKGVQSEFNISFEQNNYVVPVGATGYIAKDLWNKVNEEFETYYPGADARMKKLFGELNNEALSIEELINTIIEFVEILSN

In the case of `NC(=O)c1ccc[n+]([C@@H]2O[C@H](COP(=O)(O)OP(=O)(O)OC[C@H]3O[C@@H](n4cnc5c(N)ncnc54)[C@H](O)[C@@H]3O)[C@@H](O)[C@H]2O)c1` [NAD^+], the “in vitro NADase assay on bead-bound protein, LC-MS” value was “we compared the in vitro NADase products of ThsB-Auto, BdTIR, AbTIR, and HopAM1” in assay [1]; “we compared the in vitro NADase products of ThsB-Auto, BdTIR, AbTIR, and HopAM1” in assay [2]; “we compared the in vitro NADase products of ThsB-Auto, BdTIR, AbTIR, and HopAM1” in assay [4]. Moreover, in assay [3], the “in vitro NAD+ consumption” value was “NADase products of ThsB-Auto could stimulate NAD^+ consumption by ThsA in vitro”.

Values taken from paper PMC10022894, “Plant and prokaryotic TIR domains generate distinct cyclic ADPR NADase products” (Science Advances, 2023).
